This is an account of results in patent US12173007B2, “Imidazopyridazine IL-17 inhibitor compounds” (Janssen Pharmaceutica NV, priority 2021, dated 2024).

Test [1] addresses T1, IL-17A(FLAG-Tagged): IL-17RA(His-Tagged) binding (Homo sapiens, UniProt Q16552, K93Q). The experiment in a line: IL-17A(FLAG-tagged):IL-17RA(His-tagged) binding disruption Eu-HTRF assay, Protocol 1. Conditions: FLAG-IL-17A 2.5 nM; average if tested more than once. The gist of the method:
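Compound pre-incubated 1 h at rt with FLAG-IL-17A (2.5 nM final) in PBS/0.01% Triton X-100, then 10His-IL-17RA, Eu-anti-FLAG and D2-anti-His added with KF; 2 h at rt. HTRF 665/620 nm ratio vs concentration (22-point 2-fold series) fitted to one-site competition for IC50.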
A general note: In TR-FRET formats the signal depends on donor and acceptor labels being close together.

Test [2] deals with IL-17A-induced G-CSF production in human normal keratinocyte (NHK). The experiment in a line: NHK assay: IL-17A-induced G-CSF production in normal human keratinocytes. Type of test: cell-based. Conditions: 24 h, IL-17A 5 ng/mL, G-CSF by HTRF, average if tested more than once. An outline of the steps:
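IC50 derives from G-CSF in supernatants, quantified by HTRF from a standard curve, with CellTiter-Glo viability compared to DMSO control. Before a 24 h, 37°C culture of normal human keratinocytes at 3000–4000 cells/well, compound dilutions were preincubated 1 h at rt with human IL-17A (5 ng/mL final), with 0.2% DMSO and 5% FBS.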

Test [3] addresses T1, IL-17A(FLAG-Tagged): IL-17RA(His-Tagged) binding. The experiment in a line: IL-17A(FLAG-tagged):IL-17RA(His-tagged) binding disruption Eu-HTRF assay, Protocol 2. Conditions: FLAG-IL-17A 1 nM; average if tested more than once. The gist of the method: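 FLAG-tagged IL-17A (1 nM final) was preincubated with compound (2-fold serial dilutions, 22 points) for 1 h at rt in PBS + 0.01% Triton X-100. 10×His-IL-17RA, Eu-anti-FLAG and D2-anti-His in buffer containing KF were then added for 2 h at rt. IC50 came from the 665/615 nm HTRF ratio fitted to a one-site competition model.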

For test [4] the following is noted: moderate-to-severe HS, seven of nine patients, open-label pilot-trial; cited from earlier work.

T1 sequence (Q16552 with tags, fused parts or gaps K93Q): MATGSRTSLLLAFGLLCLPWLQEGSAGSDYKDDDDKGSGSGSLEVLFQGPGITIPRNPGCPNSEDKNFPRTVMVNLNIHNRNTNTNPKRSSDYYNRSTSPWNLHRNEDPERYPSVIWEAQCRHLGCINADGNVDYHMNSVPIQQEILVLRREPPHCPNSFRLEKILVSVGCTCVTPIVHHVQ

Broadly, the IC50 is the point on the concentration scale where inhibition reaches its midpoint. High values mean weaker potency in that assay, low ones greater potency in that assay. Consider `Cc1nonc1C(=O)N[C@H](c1cn2ncc([C@@H](COC3CC3)N3CC(F)(F)CNC3=O)cc2n1)C1CCC(F)(F)CC1` [Example 16, N—((S)-(7-((S)-2-Cyclopropoxy-1-(5,5-difluoro-2-oxotetrahydropyrimidin-1(2H)-yl)ethyl)imidazo[1,2-b]pyridazin-2-yl)(4,4-difluorocyclohexyl)methyl)-4-methyl-1,2,5-oxadiazole-3-carboxamide], for which the concentration for half-maximal inhibition (IC50) in test [1] is under 50 nM; in test [2] (Homo sapiens, Keratinocyte) it was under 50 nM; in test [3] it was under 50 nM.
With `COC[C@H](c1cnn2cc([C@@H](NC(=O)c3nonc3C3CC3)C3CCC(F)(F)CC3)nc2c1)N1CC(F)(F)CNC1=O` [Example 11, 4-Cyclopropyl-N—((S)-(7-((S)-1-(5,5-difluoro-2-oxotetrahydropyrimidin-1(2H)-yl)-2-methoxyethyl)imidazo[1,2-b]pyridazin-2-yl)(4,4-difluorocyclohexyl)methyl)-1,2,5-oxadiazole-3-carboxamide], the IC50 was under 50 nM in test [1]; under 50 nM in test [2] (Homo sapiens, Keratinocyte); under 50 nM in test [3].
secukinumab: in test [4], the “patients achieved HiSCR” value is reported as 78%.
Consider `Cc1nonc1C(=O)N[C@H](c1cn2ncc(C(C)N3CC(F)(F)CNC3=O)cc2n1)C1CCC(F)(F)CC1` (single isomer, unassigned) [Example 93, N—((S)-(7-((S*)-1-(5,5-Difluoro-2-oxotetrahydropyrimidin-1(2H)-yl)ethyl)imidazo[1,2-b]pyridazin-2-yl)(4,4-difluorocyclohexyl)methyl)-4-methyl-1,2,5-oxadiazole-3-carboxamide], for which the IC50 in test [1] was over 100 nM; in test [2] (Homo sapiens, Keratinocyte), over 100 nM.
Take `N#CC1([C@H](c2cnn3cc([C@@H](NC(=O)c4nonc4C4CC4)C4CCC(F)(F)CC4)nc3c2)N2CC(F)(F)CNC2=O)CCC1` [Example 85, N—((S)-(7-((S)-(1-Cyanocyclobutyl)(5,5-difluoro-2-oxotetrahydropyrimidin-1(2H)-yl)methyl)imidazo[1,2-b]pyridazin-2-yl)(4,4-difluorocyclohexyl)methyl)-4-cyclopropyl-1,2,5-oxadiazole-3-carboxamide]: the IC50 was under 50 nM in test [1] and over 100 nM in test [2] (Homo sapiens, Keratinocyte).
Consider `CC1(C)CNC(=O)N(Cc2cnn3cc([C@@H](NC(=O)c4nonc4C4CC4)C4CCC(F)(F)CC4)nc3c2)C1` [Example 33, (S)-4-Cyclopropyl-N-((4,4-difluorocyclohexyl)(7-((5,5-dimethyl-2-oxotetrahydropyrimidin-1(2H)-yl)methyl)imidazo[1,2-b]pyridazin-2-yl)methyl)-1,2,5-oxadiazole-3-carboxamide], for which the IC50 in test [1] was 50 to 100 nM; in test [2] (Homo sapiens, Keratinocyte), over 100 nM.
Regarding `O=C(N[C@H](c1cn2ncc(CN3CC(F)(F)C(F)(F)CNC3=O)cc2n1)C1CCC(F)(F)CC1)c1nonc1C1CC1` [Example 86, (S)-4-Cyclopropyl-N-((4,4-difluorocyclohexyl)(7-((5,5,6,6-tetrafluoro-2-oxo-1,3-diazepan-1-yl)methyl)imidazo[1,2-b]pyridazin-2-yl)methyl)-1,2,5-oxadiazole-3-carboxamide], the IC50 in test [1] was under 50 nM; in test [2] (Homo sapiens, Keratinocyte) it was under 50 nM; in test [3], under 50 nM.
For the compound `CC1CCCN(Cc2cnn3cc([C@@H](NC(=O)c4ccnn4C(C)C)C4CCC(F)(F)CC4)nc3c2)C(=O)N1` (single isomer, unassigned) [Example 95, N—((S)-(4,4-Difluorocyclohexyl)(7-(((S*)-4-methyl-2-oxo-1,3-diazepan-1-yl)methyl)imidazo[1,2-b]pyridazin-2-yl)methyl)-1-isopropyl-1H-pyrazole-5-carboxamide], the IC50 in test [1] and in test [2] was over 100 nM throughout.
